In patent US20080299076A1, “Compunds and compositions that cause non-apoptotic cell death and uses thereof” (priority 2006, published 2008):

What was measured:
[1] = target: T1, murine VDAC3 (Mus musculus, UniProt Q60931); test: NADH oxidation assay in mitochondria from yeast expressing VDAC3; type: biochemical; conditions: mitochondria from yeast expressing VDAC3 in place of yeast VDAC
T1 construct: expressed in transfected cells; host or cells: yeast (S. cerevisiae) with murine VDAC3 in place of yeast VDAC; isolated mitochondria
T1 sequence (Q60931 1-283): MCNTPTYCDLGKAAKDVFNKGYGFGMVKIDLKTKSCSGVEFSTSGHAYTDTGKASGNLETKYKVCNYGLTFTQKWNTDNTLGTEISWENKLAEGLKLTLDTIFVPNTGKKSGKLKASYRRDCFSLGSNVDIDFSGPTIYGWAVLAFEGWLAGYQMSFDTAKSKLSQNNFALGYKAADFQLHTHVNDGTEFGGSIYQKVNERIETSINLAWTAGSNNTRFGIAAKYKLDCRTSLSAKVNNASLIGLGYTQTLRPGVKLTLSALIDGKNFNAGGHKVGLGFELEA
Protocol: In certain embodiments, mitochondria can be purified from yeast that had been engineered to express murine or human VDAC3 in place of yeast VDAC.
Mitochondria were isolated from yeast expressing murine VDAC3 in place of yeast VDAC. The rate of NADH oxidation by an inner membrane NADH dehydrogenase was determined by measuring the change in NADH absorbance over time. Mitochondria with a disrupted outer membrane show an increased rate of NADH oxidation (red, shocked) compared to untreated mitochondria (green).
NADH oxidation in the mitochondria was measured by resuspending mitochondria isolated from yeast in R-buffer (0.65 M sucrose, 10 mM HEPES (pH 7.5), 10 mM KH2PO4, 5 mM KCl, 5 mM, MgCl2) to a final concentration of 100 μg/ml. Mitochondrial concentration was measured by dissolving mitochondria in 0.6% SDS and reading absorbance at 280 nm. The mitochondrial suspension was then incubated with 25 μM NADH, and the absorbance at 340 nm monitored over a 15 minute period. The assay was repeated in the presence of erastin. To assess mitochondrial intactness, a parallel assay was run in which mitochondria were hypotonically shocked prior to addition of NADH. The mitochondrial pellet was resuspended in dH2O and incubated on ice for 3 minutes to disrupt the outer mitochondrial membrane. 2× R-buffer was then added to restore normal osmotic conditions.

[2] = system: EWS502; test: Response of tumor cell lines to erastin (dose-response); type: cell-based
Protocol: Given that oncogenic RAS activates at least four downstream pathways, analysis was performed to identify which downstream effects were necessary for erastin sensitivity. In certain embodiments, the invention provides that erastin inhibits growth and kills genuine tumor cells with RAS mutations. In other embodiments, the invention provides measures of the dose-response of 29 tumor cell lines to erastin, wherein there is at least 50% inhibition of viability in 18 of the cell lines (Table 4). Numerous sarcoma-derived tumor cell lines were sensitive to erastin, consistent with the fact that erastin was discovered in an engineered tumor cell line created from human fibroblasts.

[3] = Stability in mouse liver microsomes; type: in vitro ADME; conditions: after 1 hr
Protocol: (§1) The stability of erastin in mouse and human liver microsomes and in mouse and human plasma was assessed. In both human and mouse liver microsomes, after 1 hr, ˜30% of erastin was converted to its primary metabolite (the O-de-ethylated product). In both human and mouse plasma, only ˜10% of erastin was lost after five hours. Thus, erastin has sufficient metabolic and plasma stability to be tested in vivo in mice.

[4] = Stability in human plasma; type: in vitro ADME; conditions: after five hours
Protocol: as §1

[5] = Toxicity after injection in mice; type: in vivo
Protocol: In certain embodiments, erastin was formulated at 150 mg/kg in 10% DMSO, 20% Tween 80, 70% saline and 0.5 mL of this formulation was injected via IV twice per day for four days in 3 nude mice.

[6] = system: BJELR cells; test: Erastin sensitivity after upregulation of VDAC proteins by nucleofection; type: cell-based, human
From the text: Quantitative western blot showing the ratio of VDACs (top band, green) to eif4E (bottom band, red) (e). […] Green, untransfected BJELR cells; blue, mock nucleofected BJELR cells; red, VDAC2/3-nucleofected BJELR cells (f).
In certain aspects, the invention provides that erastin acts by a gain-of-function mechanism and that cells with more VDAC proteins are more sensitive to erastin. A gain-of-function mechanism operates in cells which have increased levels of topoisomerase I and are thus more sensitive to camptothecin^149. […] In other embodiments, cell lines can be stably transfected with vectors expressing VDAC1, 2, and/or 3. Thus, increased VDAC expression leads to erastin sensitivity which is consistent with a gain of function mechanism. Furthermore, a knockdown of VDACs causes erastin resistance.

[7] = Stability in mouse plasma; type: in vitro ADME; conditions: after five hours
Protocol: as §1

[8] = system: VDAC2, VDAC3; test: VDAC isoform levels after erastin treatment (quantitative 2D western); type: cell-based, human
From the text: Quantitative western blot of VDAC/eif4E protein ratio in engineered BJ-derived cells. (b) Identification of VDAC isoforms in BJ-TERT/LT/ST/RAS^V12 cells using 2-D electrophoresis. i) VDAC1, VDAC2 and VDAC3 were detected by a rabbit polyclonal VDAC antibody (Abcam/ab3434), ii) VDAC1 was detected by a mouse monoclonal VDAC1 antibody (Calbiochem/529534), iii) VDAC2 was detected by a goat polyclonal VDAC2 antibody (Abcam/ab22170), iv) An illustration of 3 isoforms of VDAC separated by the 2-D gel electrophoresis. (c) BJ-TERT/LT/ST/RAS^V12 cells were treated with erastin for the indicated time and levels of each VDAC isoform determined by quantitative 2D western. (d,e) Infection with VDAC3 shRNA protects erastin-treated cells. 293T cells were transfected with shRNA-plasmid construct using FuGene and viral supernatant transferred to HT1080 cells, and treated with erastin dilutions and viability measured using Trypan Blue exclusion. […] (f) Quantitative RT-PCR measurements of mRNA levels of the 3 VDAC isoforms after infection with shVDAC3. Knockdown was determined by normalizing to the levels in the shGFP-infected control. […] (g) Mitochondria were purified from yeast expressing murine VDAC3 in place of yeast VDAC, and the rate of NADH uptake determined in the presence or absence of erastin, or in shocked mitochondria in which the outer membrane was disrupted. […]

## CCOc1ccccc1-n1c(C(C)N2CCN(C(=O)COc3ccc(Cl)cc3)CC2)nc2ccccc2c1=O (stereo not shown) [erastin, 2-(1-{4-[2-(4-Chloro-phenoxy)-acetyl]-piperazin-1-yl}-ethyl)-3-(2-ethoxy-phenyl)-3H-quinazolin-4-one]
[1]
  Rate of NADH oxidation / permeability of outer mitochondrial membrane to NADH: increases the permeability
[1]; listed as Erastin
  Rate of NADH oxidation / permeability of outer mitochondrial membrane to NADH: increased the rate of NADH oxidation
[2]; EWS502
  EC50: 10 µM
  Erastin Sensitivity (maximum percent killing, as fraction): 0.42
[2]; EWS502, Ewing sarcoma
  Max % killing: 42%
[3]
  converted to primary metabolite (O-de-ethylated product): ~30%
[4]
  compound lost: ~10%
[5]; 150 mg/kg in 10% DMSO, 20% Tween 80, 70% saline, IV twice per day for four days, nude mice
  Gross toxicity (body weight and behavior): No gross toxicity
[5]; single dose IP in 100% DMSO up to 450 mg/kg
  Overt toxicity: no overt toxicity
[6]
  Increase in sensitivity to erastin: about two to three-fold
[7]
  compound lost: ~10%
[8]; after 8 hours of erastin treatment
  VDAC3 protein level: no longer detectable
[8]; after 10 hours of erastin treatment
  VDAC2 protein level: undetectable
